Source: US8460906B2, “Immobilized product tolerant microorganisms” (Cobalt Technologies, Inc., priority 2008, dated 2013)
Like-named read-outs stand apart in the source and are kept apart here.

Legend:
[1] = test system: mutants of C. saccharobutylicum strain Co-7449; conditions: suspension culture, colonies from 5% butanol RCM plates
Co-5673 [2] = conditions: liquid P2+4% Xylose, 24 and 96 hr time points
Procedure: (§1) The next day, the OD600 of the seed train tubes was measured. […] Control tubes without inoculum were also prepared. Tubes were incubated in an anaerobic hood.
(§2) After 1 day and 3-4 days, the OD600 of liquid cultures was measured. Plates were examined for growth. […] OD600 at start (0 hr) was based on a 1:20 inoculation of the starter cultures.

Co-7449 = conditions: liquid P2+4% Xylose, 24 and 96 hr time points
Procedure: as §1, §2

Co-0124 [3] = conditions: liquid P2+4% Xylose, 24 and 96 hr time points
Procedure: as §1, §2

[4] = test system: mutants of C. saccharobutylicum strain Co-7449
Procedure: (§3) In some embodiments, solvent tolerant microorganisms are mutagenized and selected for increased solvent tolerance on solid support. In some embodiments, solvent tolerant mutants can be used for either solvent or organic acid production. […] In some embodiments of the present invention, solvent tolerance is a relative value that is measured by comparing the growth ability of a mutant microorganism on a semi-solid or solid support to the growth ability of the non-mutant parent microorganism on the same semi-solid or solid support. Typically, the semi-solid or solid support comprises a growth media and a specified concentration of a solvent that is usually measured on a volume to volume (v/v) basis. Generally, multiple containers, usually petri dishes, are filled with semi-solid or solid support representing a range of solvent concentration. […] The highest concentration at which colonies still form represents the solvent tolerance of the microorganism. An alternative solvent tolerance test method is to overlay the non-solvent support with a solution containing a specified concentration of a solvent.
Clostridium saccharobutylicum strain Co-7449 was grown in yeast extract medium (YEM) to an approximate OD600 of 3 and was treated with a final concentration of 50 μg/ml N-methyl-N′-nitro-N-nitrosoguanidine (MNNG) for 15 minutes. Cells were twice washed with glucose-free YEM and plated on Reinforced Clostridium Medium (RCM) at 10^−3 and 10^−4 dilution to recover 3000-4000 colonies.

Co-5673 [5] = conditions: solid media P2+4% Xylose
Procedure: (§4) On the first day, a seed train of a strain to be investigated was started in 5 ml cultures of P2+4% Xylose in the anaerobic hood. A 1-L volume of sterile P2 medium containing 4% Xylose and agar was prepared and place on hot plate. […] The solution was mixed well and plates were poured in a sterile environment. After the plates were solidified, they were transferred to the anaerobic hood and parafilmed immediately prior to storage overnight.
as §1, §2

Co-0124 [6] = conditions: solid media P2+4% Xylose
Procedure: as §4, §1, §2

[7] = test system: environmental sample (isolate)
Procedure: An environmental sample (isolate) is obtained. The isolate is plated on a set of identical plates containing a nutrient agar.

[8] = test system: Clostridium saccharobutylicum strain Co-7449; conditions: for highest butanol concentration of plates showing growth: solid media P2+4% Xylose
Procedure: as §3, §4, §1, §2

butanol
growth in YEM with 1.2% butanol added to the broth [1]: did not grow
highest butanol concentration at which OD600 increased (Co-5673 [2]): 1.4 % (v/v)
highest butanol concentration at which OD600 increased (Co-7449): 1.4 % (v/v)
highest butanol concentration at which OD600 increased (Co-0124 [3]): 1.6 % (v/v)
tolerance for butanol compared to the parent Co-7449 strain ([4]; mutants grown on a solid support): at least a two-fold higher tolerance
growth on 5% butanol plates after culture in YEM without butanol ([4]; samples removed from liquid YEM, plated on 5% butanol plates): failed to grow
relative solvent tolerance of the mutants versus non-mutant parent strain ([4]; {}): at least 225%
highest butanol concentration of plates showing growth (Co-5673 [5]; 24 hour): 2.2%
highest butanol concentration of plates showing growth (Co-5673 [5]; 96 hour): 2.2%
highest butanol concentration of plates showing growth (Co-0124 [6]; 24 hour): 2.2%
highest butanol concentration of plates showing growth (Co-0124 [6]; 96 hour): 2.3%
butanol concentration the adapted strain grows in ([7]; after 20 passages on solid support with increasing butanol): 2.5%
highest butanol concentration of plates with colonies ([7]; unadapted isolate, no growth at 1.8% or 2.0%): 1.6%
butanol tolerance result on solid media ([8]; 24 hr, separate experiment): 2.1%
highest butanol concentration of plates showing growth ([8]; 24 hour): 0%
highest butanol concentration of plates showing growth ([8]; 96 hour): 2.2%
